The assay relates to narcoticized male cats. Kind of assay: Decrease in arterial blood pressure after intravenous administration, under i.v. infusion of angiotensin II. Format: in vivo, cat. The conditions noted are these: single dose, angiotensin II infusion 0.5 μg/kg/min, average of 6 experiments. On the procedure: The antagonistic activity of the compounds having the formula I was tested on narcoticized male cats. The blood pressure was measured on the cervical artery. The tests were performed by introducing a Hypertension (CIBA) infusion into a lateral femoral vane at a speed of 0.5 μg/kg/min. When the increase in blood pressure was stabilized, the aqueous, physiological or carrier-containing solutions of the test compounds and Saralasin were administered in a single dose, intravenously or subcutaneously, and the decrease in blood pressure was measured. In the Table I the decrease in the arterial blood pressure under the influence of an intravenous administration of the test compounds is illustrated. For comparison Saralasin is used. The data set forth in the Table 1 were obtained by calculating the average of the results of 6 experiments. The margins of error indicate the scatter of the main value.

This is an account of results in US4179433A, “Angiotensin II antagonist peptides containing an alpha-aminooxyacid in the position-1” (Richter Gedeon Vegyeszeti Gyar Rt., priority 1977, dated 1979).

For `CNCC(=O)N[C@@H](CCCN=C(N)N)C(=O)N[C@H](C(=O)N[C@@H](Cc1ccc(O)cc1)C(=O)N[C@H](C(=O)N[C@@H](Cc1cnc[nH]1)C(=O)N1CCC[C@H]1C(=O)N[C@@H](C)C(=O)O)C(C)C)C(C)C` [Saralasin], the “Decrease in blood pressure (mmHg) after administration of 10 μg/kg i.v. doses” value is recorded as -41±2.5 mmHg.
